Measurements reported in patent US10251871B2, “Compositions and methods for treatment of edema” (Memorial Sloan Kettering Cancer Center, priority 2015, dated 2019).

Legend:
[1] = tested on: circulating blood T cells; test: Flow cytometry of peripheral blood T cells; format: in vivo, mice
Method: Flow cytometry was performed on peripheral blood samples as previously reported. Zampell et al., PLoS ONE 7:e49940 (2012). Briefly, erythrocytes were lysed with RBC lysis buffer (Ebioscience, San Diego, Calif.) followed by staining with fluorophore-conjugated antibodies (CD45, CD3, and CD4; all from Biolegend, San Diego, Calif.) and analysis with a FACSCalibur flow cytometer (BD Biosciences, Franklin Lakes, N.J.) using FlowJo software (Tree Star, Ashland, Oreg.).

[2] = tested on: ear skin lymphatic vessels (LYVE-1+); test: Ear punch wound model of cutaneous lymphangiogenesis; format: in vivo, mice; details: topical tacrolimus for 4 weeks, vs control ointment
Description: We also studied lymphangiogenesis during wound healing using an ear punch wound model and applying topical tacrolimus or control ointment for 4 weeks. […] To test the possibility of direct lymphangiogenic effects of tacrolimus, we applied tacrolimus to unwounded mouse ears for 4 weeks, and then performed whole mount confocal imaging of lymphatic vessels. We observed no increase in lymphangiogenesis in this uninjured, non-inflamed setting (FIG. 16). […] A corneal lymphangiogenesis assay was performed as previously reported. Cursiefen et al., Cornea 25:443-447 (2006). Briefly, 10-0 nylon sutures (Ethicon, Cincinnati, Ohio) were placed in the cornea at […]. Beginning immediately after suture placement, animals were treated with systemic tacrolimus or vehicle control daily for two weeks, followed by analysis using confocal microscopy (Leica Microsystems, Weitziar, Germany). […] Cutaneous lymphangiogenesis was assessed using an ear punch wound model as previously reported. […] Tile-scan images were obtained using a confocal microscope (Leica Microsystems, Weitziar, Germany) and skin within 400 μm of the wound edge was analyzed using Metamorph software (Molecular Devices, Sunnyvale, Calif.). Standardized (200 μm×200 μm) fields were analyzed for the number of branch points present per unit area by two blinded reviewers.

[3] = tested on: blood vessel permeability; test: Miles assay for vascular permeability after PLND; format: in vivo; details: topical tacrolimus 2 weeks, PLND mice, vs vehicle control
Method: Additionally, to ensure that the observed effects of tacrolimus on lymphatic function were not a result of decreased vascular permeability and blood vessel leakage, we performed a Miles assay to measure blood vessel permeability following PLND surgeries with and without tacrolimus. […] In-vivo detection of ROS was performed by bioluminescent imaging of NADPH oxidase as described by Han et al. (J. Vis. Exp. doi: 10.3791/3925 (2012)). Briefly, mice were systemically injected with L-012 (an analogue of luminol) (20 μg/g) dissolved in PBS at different time points after PLND and luminescent signals representing ROS at the PLND surgery site were imaged and quantified using IVIS spectrum 200 (Xenogen Corporation). Miles assay for vascular permeability was performed as described. Radu et al., J. Vis. Exp. doi: 10.3791/50062 (2013). Briefly, 200 μl of 0.5% sterile Evans blue was injected via tail vein to 2 weeks tacrolimus treated PLND mice. After 30 min PLND hind limbs were imaged to observe Evans blue leakage. Hind limbs were excised and incubated in formamide for 48 hrs. at 55° C. to extract the Evans blue. Extracted Evans blue was quantified by measuring absorbance at 610 nm.

[4] = tested on: hind limb collecting lymphatics of non-operated animals; test: Non-operated (sham) hind limb, NIR lymphatic imaging; format: in vivo, mice; details: tacrolimus, non-operated animals (anesthesia only, no surgery)
Description: Upper panels are representative images of NIR lymphatic images of the hind limb lymphatics in sham operated mice (i.e., anesthesia without incision or PLND) following treatment with control or topical tacrolimus for 2 weeks. Quantification of collecting lymphatic vessel pulsation frequency following 3 or 14 days of treatment with tacrolimus is shown below.
This is important since previous studies have shown that perilymphatic iNOS expression is an important regulator of collecting lymphatic pumping capacity. Liao et al., Proc. Natl. Acad. Sci. USA 108:18784-18789 (2011).

[5] = tested on: popliteal lymph node dissection (PLND) mouse model; test: Popliteal lymph node dissection (PLND) hind limb model of lymphatic injury; details: 4 weeks after PLND
Description: To enable analysis of the lymphatic collecting vessel pumping capacity we utilized a previously described mouse popliteal lymphadenectomy model. […] Briefly, the hind limb collecting vessels and popliteal lymph nodes were identified and the lymph nodes were excised with the popliteal fat pad. Beginning 2 weeks after surgery, animals were randomized to treatment with either 0.1% topical tacrolimus or vehicle control (petroleum jelly) twice daily for 2 weeks.
Near infrared imaging (NIR) was performed using a modification of previously published results. […] Briefly, 15 μl (0.15 mg mL^−1) indocyanine green (ICG, Sigma-Aldrich, Saint Louis, Mo.) was injected intradermally in the web space of the dorsal hind limb and visualized using an EVOS EMCCD camera (Life Technologies, Carlsbad, Calif.) with a LED light source (CoolLED, Andover, United Kingdom). Static/video images were obtained using a Zeiss V12 Stereolumar microscope (Caliper Life Sciences, Hopkinton, Mass.) and lymphatic pumping function was analyzed using Fiji software (NIH, Bethesda, Md.) by identifying a region-of-interest over the dominant collecting vessel of the leg and subtracting the background fluorescent intensity plotted over time.
Immunohistochemical staining was performed using our published methods. […] Briefly, tissues were fixed in 4% paraformaldehyde at 4° C., decalcified in 5% sodium EDTA (Santa Cruz Biotechnology, Dallas, Tex.), embedded in paraffin, and sectioned at 5 micrometers. Cut sections were rehydrated and heat-mediated antigen unmasking was performed using 90° C. sodium citrate (Sigma-Aldrich). Non-specific binding was blocked with 2% BSA/20% animal serum. Tissues were incubated overnight with primary antibody at 4° C. Primary antibodies used for immunohistochemical stains included goat anti-mouse LYVE-1, rat anti-mouse CD45, rabbit anti-mouse CD4, and rat anti-mouse F4/80 (all from R&D, Minneapolis, Minn.), rabbit anti-mouse CD3 (from Dako, Carpinteria, Calif.), Cy3-conjugated mouse anti-αSMA (from Sigma-Aldrich), rabbit anti-human IFN-γ, rabbit anti-mouse TGF-β1, rabbit anti-mouse p-SMAD3, rabbit anti-mouse collagen I, rabbit-anti-mouse iNOS, and hamster-anti-mouse podoplanin, rabbit anti-mouse HMGB-1 and HSP-70 (all from ABCAM, Cambridge, Mass.).
Immunofluorescence staining was performed using AlexaFluor fluorophore-conjugated secondary antibodies (Life Technologies, Norwalk, Conn.). Images were scanned using Mirax imaging software (Carl Zeiss).

[6] = topical tacrolimus, vs vehicle treated controls
[7] = topical 0.1% tacrolimus twice daily for 2 weeks from 2 weeks after PLND, vs vehicle control
[8] = topical 0.1% tacrolimus, vs control
[9] = topical 0.1% tacrolimus, vs vehicle treated controls

- blood T cells (CD3+) ([1]; systemic tacrolimus 4 mg kg^−1 IP daily, vs vehicle control): significant reduction
- circulating CD4+ cells [1, 6]: no changes
- circulating blood T cells (CD3+) [1, 6]: no changes
SMILES: C=CC[C@@H]1/C=C(\C)C[C@H](C)C[C@H](OC)[C@H]2O[C@@](O)(C(=O)C(=O)N3CCCC[C@H]3C(=O)O[C@H](/C(C)=C/[C@@H]3CC[C@@H](O)[C@H](OC)C3)[C@H](C)[C@@H](O)CC1=O)[C@H](C)C[C@@H]2OC [tacrolimus]
- lymphatic vessel branching in ear skin adjacent to the wound [2]: significantly increased
- lymphatic vessel density in ear skin adjacent to the wound [2]: significantly increased
- blood vessel permeability (Evans blue) [3]: no differences
- lymphatic contraction frequency [4]: did not increase
- perilymphatic accumulation of inflammatory cells [4]: did not increase
- increase in collecting lymphatic packet frequency [5, 7]: > 2 fold
- lymphatic leakiness and dermal back flow of ICG [5, 7]: markedly decreased
- collateral lymphatics draining towards the inguinal lymph node ([5]; topical 0.1% tacrolimus, NIR imaging and IF staining, vs control): significantly more
- luminal area of hind limb collectors [5, 8]: no differences
- number of alpha smooth muscles surrounding hind limb collecting lymphatics [5, 8]: no differences
- reduction in perilymphatic CD4+ cells [5, 9]: 56%
- reduction in perilymphatic CD45+ cells [5, 9]: 39%
- reduction in perilymphatic F4/80+ cells [5, 9]: 36%
- reduction in the number of perilymphatic iNOS-expressing cells [5, 9]: 42%
